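A five-concentration, 48-hour dose response in 96-well plates underlies each endpoint, interpolated linearly between surrounding concentrations. At the GI50, growth is halved. At the TGI there is no net growth.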
What follows are molecules tested on COLO 205 colon (assay: inhibition of tumour cell growth, NCI panel, 48 h).

Point of comparison: `C[C@H](CCC(=O)O)[C@H]1CC[C@H]2[C@@H]3CC[C@@H]4C[C@H](O)CC[C@]4(C)[C@H]3C[C@H](O)[C@]12C`, TGI 61.8 µM. Against it:
- CC(C)C(=O)OCC1OC(n2c(Br)nc3c(=O)[nH]c(N)nc32)C(OC(=O)C(C)C)C1OC(=O)C(C)C (configuration not stated) — higher, > 100 µM
- COC(=O)/C=C(\C)CC(O)/C=C(\C)CCC=C(C)C (configuration not stated) — higher, > 100 µM

Each molecule was assayed on DU-145 prostate (assay: inhibition of tumour cell growth, NCI panel, 48 h).

Point of comparison: `C=CCCCCOc1ccccc1-c1cnc(OCCCCC=C)n1C`, TGI 22.3 µM. Against it:
- CCCCCCOC(=O)/C=C/[C@]1(CO)C/C(=C/CC(C(C)C)C(C)C)C(=O)O1 — 1.7-fold higher, 37 µM
- Cc1nc2c(nc1C)-c1[nH]c3c(c1C(=O)C2=O)CCCC3=O — within 1.5-fold, 23.5 µM
- Cn1c(=O)c2c(nc(Cc3ccccc3)n2CC(=O)O)n(C)c1=O — higher, > 100 µM
- CC(C)C(=O)OCC1OC(n2c(Br)nc3c(=O)[nH]c(N)nc32)C(OC(=O)C(C)C)C1OC(=O)C(C)C (configuration not stated) — higher, > 100 µM
- C[C@H](CCC(=O)O)[C@H]1CC[C@H]2[C@@H]3CC[C@@H]4C[C@H](O)CC[C@]4(C)[C@H]3C[C@H](O)[C@]12C — higher, > 100 µM

For `C=CCCCCOc1ccccc1-c1cnc(OCCCCC=C)n1C`, the GI50 was 5.68 µM.

The molecules below were run on EKVX NSCLC (assay: inhibition of tumour cell growth, NCI panel, 48 h).

Point of comparison: `C=CCCCCOc1ccccc1-c1cnc(OCCCCC=C)n1C`, TGI 44.1 µM. Against it:
- CCCCCCOC(=O)/C=C/[C@]1(CO)C/C(=C/CC(C(C)C)C(C)C)C(=O)O1 — 3.3-fold lower, 13.4 µM
- Cc1nc2c(nc1C)-c1[nH]c3c(c1C(=O)C2=O)CCCC3=O — 12-fold lower, 3.71 µM
- Cn1c(=O)c2c(nc(Cc3ccccc3)n2CC(=O)O)n(C)c1=O — higher, > 100 µM
- CC(C)C(=O)OCC1OC(n2c(Br)nc3c(=O)[nH]c(N)nc32)C(OC(=O)C(C)C)C1OC(=O)C(C)C (configuration not stated) — higher, > 100 µM
- C[C@H](CCC(=O)O)[C@H]1CC[C@H]2[C@@H]3CC[C@@H]4C[C@H](O)CC[C@]4(C)[C@H]3C[C@H](O)[C@]12C — higher, > 100 µM
- COC(=O)/C=C(\C)CC(O)/C=C(\C)CCC=C(C)C (configuration not stated) — higher, > 100 µM

In the case of `C=CCCCCOc1ccccc1-c1cnc(OCCCCC=C)n1C`, the GI50 is reported as 11 µM.

Each molecule was assayed on HCC-2998 colon (assay: inhibition of tumour cell growth, NCI panel, 48 h).

Point of comparison: `C=CCCCCOc1ccccc1-c1cnc(OCCCCC=C)n1C`, TGI 21.3 µM. Against it:
- CCCCCCOC(=O)/C=C/[C@]1(CO)C/C(=C/CC(C(C)C)C(C)C)C(=O)O1 — 3.4-fold lower, 6.18 µM
- Cc1nc2c(nc1C)-c1[nH]c3c(c1C(=O)C2=O)CCCC3=O — 2.8-fold lower, 7.71 µM
- Cn1c(=O)c2c(nc(Cc3ccccc3)n2CC(=O)O)n(C)c1=O — higher, > 100 µM
- C[C@H](CCC(=O)O)[C@H]1CC[C@H]2[C@@H]3CC[C@@H]4C[C@H](O)CC[C@]4(C)[C@H]3C[C@H](O)[C@]12C — higher, > 100 µM
- COC(=O)/C=C(\C)CC(O)/C=C(\C)CCC=C(C)C (configuration not stated) — higher, > 100 µM

For `C=CCCCCOc1ccccc1-c1cnc(OCCCCC=C)n1C`, the GI50 was 6.57 µM.

Each molecule was assayed on HCT-116 colon (assay: inhibition of tumour cell growth, NCI panel, 48 h).

Point of comparison: `C=CCCCCOc1ccccc1-c1cnc(OCCCCC=C)n1C`, TGI 11.8 µM. Against it:
- CCCCCCOC(=O)/C=C/[C@]1(CO)C/C(=C/CC(C(C)C)C(C)C)C(=O)O1 — 2.2-fold higher, 25.9 µM
- Cn1c(=O)c2c(nc(Cc3ccccc3)n2CC(=O)O)n(C)c1=O — higher, > 100 µM
- CC(C)C(=O)OCC1OC(n2c(Br)nc3c(=O)[nH]c(N)nc32)C(OC(=O)C(C)C)C1OC(=O)C(C)C (configuration not stated) — higher, > 100 µM
- C[C@H](CCC(=O)O)[C@H]1CC[C@H]2[C@@H]3CC[C@@H]4C[C@H](O)CC[C@]4(C)[C@H]3C[C@H](O)[C@]12C — higher, > 100 µM
- COC(=O)/C=C(\C)CC(O)/C=C(\C)CCC=C(C)C (configuration not stated) — higher, > 100 µM

Work on `C=CCCCCOc1ccccc1-c1cnc(OCCCCC=C)n1C` yielded a GI50 of 2.66 µM.

What follows are molecules tested on HCT-15 colon (assay: inhibition of tumour cell growth, NCI panel, 48 h).

Point of comparison: `Cc1nc2c(nc1C)-c1[nH]c3c(c1C(=O)C2=O)CCCC3=O`, TGI 8.08 µM. Against it:
- CCCCCCOC(=O)/C=C/[C@]1(CO)C/C(=C/CC(C(C)C)C(C)C)C(=O)O1 — 3.5-fold higher, 28.6 µM
- Cn1c(=O)c2c(nc(Cc3ccccc3)n2CC(=O)O)n(C)c1=O — higher, > 100 µM
- C=CCCCCOc1ccccc1-c1cnc(OCCCCC=C)n1C — 2-fold higher, 16.3 µM
- CC(C)C(=O)OCC1OC(n2c(Br)nc3c(=O)[nH]c(N)nc32)C(OC(=O)C(C)C)C1OC(=O)C(C)C (configuration not stated) — higher, > 100 µM
- C[C@H](CCC(=O)O)[C@H]1CC[C@H]2[C@@H]3CC[C@@H]4C[C@H](O)CC[C@]4(C)[C@H]3C[C@H](O)[C@]12C — higher, > 100 µM
- COC(=O)/C=C(\C)CC(O)/C=C(\C)CCC=C(C)C (configuration not stated) — higher, > 100 µM

For `C=CCCCCOc1ccccc1-c1cnc(OCCCCC=C)n1C`, the GI50 was 4 µM.

What follows are molecules tested on HL-60(TB) leukemia (assay: inhibition of tumour cell growth, NCI panel, 48 h).

Point of comparison: `C[C@H](CCC(=O)O)[C@H]1CC[C@H]2[C@@H]3CC[C@@H]4C[C@H](O)CC[C@]4(C)[C@H]3C[C@H](O)[C@]12C`, TGI 67.1 µM. Against it:
- CCCCCCOC(=O)/C=C/[C@]1(CO)C/C(=C/CC(C(C)C)C(C)C)C(=O)O1 — 2.9-fold lower, 23.2 µM
- Cc1nc2c(nc1C)-c1[nH]c3c(c1C(=O)C2=O)CCCC3=O — 12-fold lower, 5.78 µM
- C=CCCCCOc1ccccc1-c1cnc(OCCCCC=C)n1C — 9.4-fold lower, 7.14 µM
- COC(=O)/C=C(\C)CC(O)/C=C(\C)CCC=C(C)C (configuration not stated) — within 1.5-fold, 46.2 µM

`C=CCCCCOc1ccccc1-c1cnc(OCCCCC=C)n1C` gave a GI50 of 2.17 µM.

These molecules were tested on HOP-62 NSCLC (assay: inhibition of tumour cell growth, NCI panel, 48 h).

Point of comparison: `Cc1nc2c(nc1C)-c1[nH]c3c(c1C(=O)C2=O)CCCC3=O`, TGI 6.76 µM. Against it:
- CCCCCCOC(=O)/C=C/[C@]1(CO)C/C(=C/CC(C(C)C)C(C)C)C(=O)O1 — 4.1-fold higher, 27.6 µM
- Cn1c(=O)c2c(nc(Cc3ccccc3)n2CC(=O)O)n(C)c1=O — higher, > 100 µM
- C=CCCCCOc1ccccc1-c1cnc(OCCCCC=C)n1C — 3-fold higher, 20.6 µM
- CC(C)C(=O)OCC1OC(n2c(Br)nc3c(=O)[nH]c(N)nc32)C(OC(=O)C(C)C)C1OC(=O)C(C)C (configuration not stated) — higher, > 100 µM

For `C=CCCCCOc1ccccc1-c1cnc(OCCCCC=C)n1C`, the GI50 was 5.13 µM.

Source: PubChem BioAssay (NCI)
